molecular target: Neuronal acetylcholine receptor subunit alpha-7 (Homo sapiens, UniProt P36544); test: Positive allosteric modulation of human alpha7 nAChR expressed in HEK cells assessed as potentiation of acetylcholine induced peak current amplitude preincubated for 58 secs followed by acetylcholine stimulation for 1 secs by automated patch-clamp electrophysiology; format: cell-based
Sequence (P36544 whole entry): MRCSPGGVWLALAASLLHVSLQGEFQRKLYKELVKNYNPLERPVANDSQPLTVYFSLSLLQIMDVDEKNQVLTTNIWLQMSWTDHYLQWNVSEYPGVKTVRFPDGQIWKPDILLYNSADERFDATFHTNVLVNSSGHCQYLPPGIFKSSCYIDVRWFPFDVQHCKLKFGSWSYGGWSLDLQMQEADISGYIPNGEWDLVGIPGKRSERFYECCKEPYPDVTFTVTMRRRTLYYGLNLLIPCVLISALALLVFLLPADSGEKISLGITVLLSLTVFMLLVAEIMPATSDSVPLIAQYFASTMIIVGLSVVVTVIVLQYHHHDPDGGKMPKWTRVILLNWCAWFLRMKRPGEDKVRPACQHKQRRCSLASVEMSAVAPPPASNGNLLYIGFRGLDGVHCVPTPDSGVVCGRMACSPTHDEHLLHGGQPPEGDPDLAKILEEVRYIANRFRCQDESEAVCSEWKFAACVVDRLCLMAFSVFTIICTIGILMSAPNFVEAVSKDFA

SMILES	EC50 [nM]
CCOc1ccc([C@H](COC)NC(=O)C2CC23CCCc2ccccc23)cc1 (some centres undefined)	740
O=C(N[C@@H](CO)C1CCCCC1)C1CC12COc1ccc(F)cc12 (some centres undefined)	770
O=C(NC1(c2ccc(F)cc2)COC1)C1CC12CCc1ccccc12 (centres undefined)	3200
O=C(N[C@@H](CO)C1CCCCC1)C1CC12COc1ccccc12 (some centres undefined)	630
CCOc1ccc([C@H](COC)NC(=O)C2CC23CCc2cc(F)ccc23)cc1 (some centres undefined)	590
O=C(NC1(c2ccc(F)cc2)COC1)C1CC12CCc1ccc(F)cc12 (centres undefined)	820
CCOc1ccc([C@H](COC)NC(=O)C2CC23CCc2ccc(F)cc23)cc1 (some centres undefined)	700
CCOc1ccc([C@H](CF)NC(=O)C2CC23COc2ccc(F)cc23)cn1 (some centres undefined)	790
CCOc1ccc([C@@H](NC(=O)C2CC23COc2ccc(F)cc23)C(F)F)cn1 (some centres undefined)	3000
